The text below walks through data of US20040209897A1 (Pharmacia Corporation, priority 2002, published 2004).

Counter-ions that a name gives are not always drawn.

The target in the first assay is Recombinant MAPKAPK2 (MK-2) (Homo sapiens, UniProt P49137). Kind of assay: Determination of MK-2 IC50 (HSP-peptide phosphorylation, anion exchange resin capture assay).
Chain of Recombinant MAPKAPK2 (MK-2) (P49137 whole entry, species assumed): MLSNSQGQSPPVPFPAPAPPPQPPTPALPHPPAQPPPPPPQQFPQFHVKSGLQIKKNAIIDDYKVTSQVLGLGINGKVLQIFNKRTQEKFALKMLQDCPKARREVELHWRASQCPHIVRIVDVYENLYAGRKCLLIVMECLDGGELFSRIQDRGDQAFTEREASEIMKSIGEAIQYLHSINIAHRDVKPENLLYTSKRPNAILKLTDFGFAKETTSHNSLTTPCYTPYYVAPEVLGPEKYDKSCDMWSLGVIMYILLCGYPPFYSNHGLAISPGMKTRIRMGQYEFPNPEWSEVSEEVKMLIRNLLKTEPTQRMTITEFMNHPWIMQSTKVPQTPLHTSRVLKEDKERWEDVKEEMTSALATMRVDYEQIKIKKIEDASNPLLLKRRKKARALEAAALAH
Details: not given
Type of assay: biochemical.
Consider `O=C(CBr)Nc1cccc(-c2cc(-c3cc4c([nH]3)CCNC4=O)ccn2)c1` [Example 271, trifluoroacetate], for which the “kind of MK-2 inhibition (irreversible)” value is recorded as “irreversible inhibitors”.

Still in this assay, the particulars now being: MAPKAP2 Avg. IC50.
In general, IC50 refers to the concentration that inhibits the measured activity by half. For `O=C1NCCc2[nH]c(-c3cc(-c4cnc5ccccc5c4)ncc3F)cc21` [Example 4, trifluoroacetate], the IC50 was 7 nM. Still for that read-out and setting: in the case of `O=C1NCCc2[nH]c(-c3ccnc(-c4ccc5cc(O)ccc5c4)c3)cc21` [Example 17] it was 9.2 nM; in that of `O=C(O)c1ccc(-c2cc(-c3cc4c([nH]3)CCNC4=O)c(F)cn2)cc1` [Example 28], 10.1 nM. Turning to `O=C1NCCc2[nH]c(-c3ccnc(/C=C/c4c(F)cccc4F)c3)cc21` [Example 59, trifluoroacetate], the IC50 came to 16 nM. Regarding `O=C1NCCc2[nH]c(-c3ccnc(-c4ccc5c(c4)OC=CO5)c3)cc21` [Example 62, trifluoroacetate], the IC50 worked out at 16.4 nM.

As for `O=C1NCCc2[nH]c(-c3ccnc(-c4ccc(N5CCOCC5)nc4)c3)cc21` [Example 63, trifluoroacetate], the IC50 was 16.4 nM. Still for that read-out and setting: then `O=C1NCCc2[nH]c(-c3ccnc(/C=C/c4cccnc4)c3)cc21` [Example 78, trifluoroacetate], with 18.3 nM. On to `O=C1NCCc2[nH]c(-c3ccnc(-c4cc(F)cc(F)c4)c3)cc21` [Example 80, trifluoroacetate], for which the IC50 was 18.5 nM. Same read-out and setting: in the case of `C=CC(=O)Nc1cccc(-c2cc(-c3cc4c([nH]3)CCNC4=O)ccn2)c1` [Example 82, trifluoroacetate] it was 19.1 nM. Same read-out and setting: then `CC(C)C(=O)Nc1ccc(-c2cc(-c3cc4c([nH]3)CCNC4=O)ccn2)cc1` [Example 88, trifluoroacetate], with 19.5 nM; and `Nc1ccc(-c2cc(-c3cc4c([nH]3)CCNC4=O)ccn2)cn1` [Example 90, trifluoroacetate], with 19.9 nM; and `COC(=O)c1ccc(-c2cc(-c3cc4c([nH]3)CCNC4=O)ccn2)cc1` [Example 105, trifluoroacetate], with 22 nM. Same read-out and setting: then `Cc1cncc(-c2cc(-c3cc4c([nH]3)CCNC4=O)ccn2)c1` [Example 111, trifluoroacetate], with 22.5 nM; and `CC(C)c1cccc(-c2cc(-c3cc4c([nH]3)CCNC4=O)ccn2)c1` [Example 119, trifluoroacetate], with 23.7 nM.

For the compound `O=C(NCC(F)(F)F)c1ccc(-c2cc(-c3cc4c([nH]3)CCNC4=O)ccn2)cc1` [Example 121, trifluoroacetate], the IC50 worked out at 23.9 nM. The same measure, in the same setting: then `CC(=NO)c1cccc(-c2cc(-c3cc4c([nH]3)CCNC4=O)ccn2)c1` [Example 134, bis(trifluoroacetate)], with 25.7 nM. Still for that read-out and setting: in the case of `Cc1ccc(-c2cc(-c3cc4c([nH]3)CCNC4=O)ccn2)cc1F` [Example 150, trifluoroacetate] it was 27.6 nM.

On to `O=C1NCCc2[nH]c(-c3ccnc(/C=C/c4ccc(N5CCOCC5)c(F)c4)c3)cc21` [Example 156, trifluoroacetate], for which the half-inhibitory concentration (IC50) amounted to 28.1 nM. Same read-out and setting: then `CC(=O)c1cccc(-c2cc(-c3cc4c([nH]3)CCNC4=O)c(F)cn2)c1` [Example 159, trifluoroacetate], with 28.3 nM. `N#Cc1cccc(-c2cc(-c3cc4c([nH]3)CCNC4=O)ccn2)c1` [Example 160, trifluoroacetate]: the IC50 was 28.5 nM. Same read-out and setting: then `O=C1NCCc2cc(-c3cc(-c4cc5c([nH]4)CCNC5=O)ccn3)ccc21` [Example 161, trifluoroacetate], with 28.6 nM. Same read-out and setting: in the case of `O=C1NCCc2[nH]c(-c3ccnc(-c4ccc(C(=O)C5CC5)cc4)c3)cc21` [Example 167, trifluoroacetate] it was 29.5 nM; in that of `COc1ccc(/C=C/c2cc(-c3cc4c([nH]3)CCNC4=O)ccn2)cc1` [Example 170, trifluoroacetate], 29.6 nM.

For the compound `COc1cc(/C=C/c2cc(-c3cc4c([nH]3)CCNC4=O)ccn2)cc(OC)c1` [Example 171, trifluoroacetate], the IC50 worked out at 29.6 nM. For the compound `O=C1NCCc2[nH]c(-c3ccnc(/C=C/c4cccc(CCN5CCOCC5)c4)c3)cc21` [Example 192, trifluoroacetate], the IC50 is 32.4 nM. On the same count and under the same terms, then `O=C1NCCc2[nH]c(-c3ccnc(/C=C/c4cc(F)ccc4F)c3)cc21` [Example 196, trifluoroacetate], with 33.6 nM; and `COC(=O)Nc1ccc(-c2cc(-c3cc4c([nH]3)CCNC4=O)ccn2)cc1` [Example 203, trifluoroacetate], with 35.1 nM. Same read-out and setting: then `O=Cc1cccc(-c2cc(-c3cc4c([nH]3)CCNC4=O)ccn2)c1` [Example 204, trifluoroacetate], with 35.5 nM; and `N#Cc1ccccc1/C=C/c1cc(-c2cc3c([nH]2)CCNC3=O)ccn1` [Example 225, trifluoroacetate], with 38.9 nM; and `CC(C)Cc1cncc(-c2cc(-c3cc4c([nH]3)CCNC4=O)ccn2)c1` [Example 243, trifluoroacetate], with 41.8 nM.

For the compound `CCc1cccc(-c2cc(-c3cc4c([nH]3)CCNC4=O)ccn2)c1` [Example 272, trifluoroacetate], the IC50 worked out at 49.3 nM. Still for that read-out and setting: in the case of `COc1ccc2cc(-c3cc(-c4cc5c([nH]4)CCNC5=O)ccn3)ccc2c1` [Example 273, trifluoroacetate] it was 49.7 nM. As to `O=C1NCCc2[nH]c(-c3ccnc(/C=C/c4c[nH]c5ccccc45)c3)cc21` [Example 276, trifluoroacetate], the 50% inhibitory concentration (IC50) came to 50.1 nM. The same measure, in the same setting: in the case of `CC(=O)OCC(=O)Nc1cccc(-c2cc(-c3cc4c([nH]3)CCNC4=O)ccn2)c1` [Example 279, trifluoroacetate] it was 51.1 nM. On the same count and under the same terms, in the case of `CC(=O)c1ccc(-c2cc(-c3cc4c([nH]3)CCNC4=O)ccn2)cc1` [Example 280, trifluoroacetate] it was 51.2 nM. Still for that read-out and setting: then `C=C(C)C(=O)Nc1cccc(-c2cc(-c3cc4c([nH]3)CCNC4=O)ccn2)c1` [Example 287, trifluoroacetate], with 52.5 nM. Turning to `CC1Cc2[nH]c(-c3ccnc(-c4ccc(N(C)C)nc4)c3)cc2C(=O)N1` (stereo not shown) [Example 295, trifluoroacetate], the IC50 worked out at 53.4 nM. On the same count and under the same terms, then `CN(C)C(=O)CCCOc1ccc(-c2cc(-c3cc4c([nH]3)CCNC4=O)ccn2)cc1` [Example 326, trifluoroacetate], with 62.2 nM; and `N#Cc1ccc(-c2cc(-c3cc4c([nH]3)CCNC4=O)ccn2)cc1` [Example 327, trifluoroacetate], with 62.3 nM. Still for that read-out and setting: then `O=C(O)c1cccc(-c2cccc(-c3cc(-c4cc5c([nH]4)CCNC5=O)ccn3)c2)c1` [Example 333, trifluoroacetate], with 64.2 nM; and `O=C(/C=C/c1ccccc1)Nc1cc(-c2cc3c([nH]2)CCNC3=O)ccn1` [Example 334, trifluoroacetate], with 64.3 nM. On the same count and under the same terms, then `O=C(CCCl)Nc1cccc(-c2cc(-c3cc4c([nH]3)CCNC4=O)ccn2)c1` [Example 336, trifluoroacetate], with 64.5 nM. For the compound `CN(C)C/C=C/C(=O)Nc1cccc(-c2cc(-c3cc4c([nH]3)CCNC4=O)ccn2)c1` [Example 338, trifluoroacetate], the half-inhibitory concentration (IC50) turned out to be 64.8 nM. Take `O=C(CCl)NCc1cccc(-c2cc(-c3cc4c([nH]3)CCNC4=O)ccn2)c1` [Example 344, trifluoroacetate]: the IC50 turned out to be 65.9 nM. On the same count and under the same terms, in the case of `O=C1NCCc2[nH]c(-c3ccnc(-c4ccc(CCc5ccc(F)cc5)nc4)c3)cc21` [Example 345, trifluoroacetate] it was 66.1 nM; in that of `CC(=NO)c1ccc(-c2cc(-c3cc4c([nH]3)CCNC4=O)ccn2)cc1` [Example 349, trifluoroacetate], 66.7 nM; in that of `C=CC(=O)NCc1cccc(-c2cc(-c3cc4c([nH]3)CCNC4=O)ccn2)c1` [Example 351, hydrochloride], 69.2 nM.

Regarding `O=C(CCCOc1ccc(-c2cc(-c3cc4c([nH]3)CCNC4=O)ccn2)cc1)NCCN1CCOCC1` [Example 357, trifluoroacetate], the IC50 came out at 72.2 nM.

For the compound `COC(=O)N1CC(c2cc(-c3cc4c([nH]3)CCNC4=O)ccn2)=Cc2ccccc21` [Example 362, trifluoroacetate], the IC50 worked out at 73.8 nM. Consider `O=C(O)/C=C\C(=O)NCc1cccc(-c2cc(-c3cc4c([nH]3)CCNC4=O)ccn2)c1` [Example 369, trifluoroacetate], for which the IC50 amounted to 76 nM.

Consider `O=C(NC1CCCCC1)c1ccc(-c2cc(-c3cc4c([nH]3)CCNC4=O)ccn2)c(F)c1` [Example 391, trifluoroacetate], for which the half-maximal inhibitory concentration (IC50) was 83.1 nM.

Take `O=C(CCl)Nc1cccc(-c2cc(-c3cc4c([nH]3)CCNC4=O)ccn2)c1` [Example 401, trifluoroacetate]: the IC50 was 87.5 nM.

`O=C(/C=C/c1ccccc1)Nc1ccc(-c2cc(-c3cc4c([nH]3)CCNC4=O)ccn2)cc1` [Example 403, trifluoroacetate]: the IC50 was found to be 87.7 nM. Same read-out and setting: in the case of `O=C1NCCc2[nH]c(-c3ccnc(-c4cccc(CNCc5cccc(Cl)c5)c4)c3)cc21` [Example 408, bis(trifluoroacetate)] it was 89.9 nM. The same measure, in the same setting: in the case of `CON=C(C)c1ccc(-c2cc(-c3cc4c([nH]3)CCNC4=O)ccn2)cc1` [Example 415] it was 92.3 nM; in that of `C/C=C/C(=O)Nc1cccc(-c2cc(-c3cc4c([nH]3)CCNC4=O)ccn2)c1` [Example 430, trifluoroacetate], 99.3 nM; in that of `Nc1cccc(-c2cc(-c3cc4c([nH]3)CCNC4=O)ccn2)c1` [Example 431, trifluoroacetate], 99.3 nM. On the same count and under the same terms, then `CCc1ccc(-c2cc(-c3cc4c([nH]3)CCNC4=O)ccn2)cc1` [Example 434, trifluoroacetate], with 101 nM.

For the compound `CN(C)C/C=C/C(=O)NCc1cccc(-c2cc(-c3cc4c([nH]3)CCNC4=O)ccn2)c1` [Example 465], the IC50 was determined as 118 nM. Still for that read-out and setting: in the case of `CN(C)S(=O)(=O)c1ccc(-c2cc(-c3cc4c([nH]3)CCNC4=O)ccn2)cc1` [Example 470] it was 120 nM; in that of `NCCCc1ccc(-c2cc(-c3cc4c([nH]3)CCNC4=O)ccn2)cn1` [Example 485], 132 nM.

On to `CC(C)=NNc1cc(-c2cc3c([nH]2)CCNC3=O)ccn1` [Example 491], for which the IC50 came out at 133 nM. On the same count and under the same terms, in the case of `O=C1NCCc2[nH]c(-c3ccnc(/C=C/c4cc5ccccc5o4)c3)cc21` [Example 494] it was 134 nM.
